Data reported in patent publication US20230079714A1, “1-AMINO-1-CYCLOPROPANECARBOXYLIC ACID FOR THINNING OF FRUITS” (priority 2021, published 2023).

Tests used:
Assay type in all cases: in vivo
peach trees = assay: Thinning trials Greece, Italy and Spain 2020, fruit set, peach sites; conditions: pink bud stage
Description: (§1) Thinning trials were conducted Greece, Italy and Spain in 2020. Specifically, 1-amino-1-cyclopropanecarboxylic acid was prepared at 200, 300, 400, 500, 800 and 1,000 ppm ACC solutions. These solutions were applied as a foliar spray to peach trees (i.e. Spain North, Spain South #1 and Greece #2) and nectarine trees (i.e. Spain South #1 and Greece #1) at pink bud stage. […] Thinning activity is expressed as fruit set (the number of large fruit per 100 flowers).

GlenGlo Peach trees [1] = assay: Peach tree thinning trial, foliage quality rating; conditions: for Foliage Rating: 1 is the best and 3 is the worst
Description: (§2) Thinning trials were conducted in Coloma, Mich. in May 2018. Specifically, 1-amino-1-cyclopropanecarboxylic acid was prepared at 300 and 600 ppm ACC solutions with 0.05% 2-butoxyethanol, poloxalene, monopropylene glycol as a surfactant. These solutions were applied as a foliar spray to GlenGlo Peach trees at pink bud stage, full bloom and after petal fall. Three one year-old shoots were flagged for each treatment on eight replicate trees. Fruit and defoliation were evaluated four weeks after bloom applications and two weeks after the post-petal fall application. […] Thinning activity is expressed as fruit set (the number of large fruit per 100 flowers).

GlenGlo Peach trees [2] = assay: Peach tree thinning trial, fruit set (Coloma, Mich., 2018); conditions: for reduced fruit set over control: pink bud stage, vs surfactant only control
Description: as §2

nectarine trees = assay: Thinning trials Greece, Italy and Spain 2020, fruit set, nectarine sites; conditions: pink bud stage
Description: Thinning trials were conducted Greece, Italy and Spain in 2020. Specifically, 1-amino-1-cyclopropanecarboxylic acid was prepared at 200, 300, 400, 500, 800 and 1,000 ppm ACC solutions. These solutions were applied as a foliar spray to peach trees (i.e. […]

[3] = test system: peach and nectarine trees; assay: Thinning trials Greece, Italy and Spain 2020, fruit set, Italy site and average of all sites; conditions: pink bud stage; for % Fruit Set (Avg): average of sites; for reduced fruit set on average over control: vs untreated control
Description: as §1

[4] = test system: plum trees (Candy Stripe and Black Majesty); assay: Plum tree thinning trial, fruit set (Chile, 2020); conditions: for % Fruit Set 'Black Majesty': Black Majesty plum; for % Fruit set 'Candy Stripe': Candy Stripe plum; for % Fruit Set (Avg): average of two varieties; for reduced fruit set on average over control: white bud stage, vs untreated control
Description: Thinning trials were conducted Chile in 2020. Specifically, 1-amino-1-cyclopropanecarboxylic acid was prepared at 300 and 450 ppm ACC solutions. These solutions were applied as a foliar spray to two separate varieties of plum trees (i.e. Candy Stripe and Black Majesty) at the white bud stage, the full bloom stage or the petal fall stage. […] Thinning activity is expressed as fruit set (the number of large fruit per 100 flowers).

NC1(C(=O)O)CC1 [ACC, 1-amino-1-cyclopropanecarboxylic acid]
% Fruit Set (Greece #2) (peach trees; 200 ppm ACC): 33%
% Fruit Set (Spain North) (peach trees; 200 ppm ACC): 50%
% Fruit Set (Spain South#1) (peach trees; 200 ppm ACC): 55%
% Fruit Set (Greece #2) (peach trees; 300 ppm ACC): 32%
% Fruit Set (Spain North) (peach trees; 300 ppm ACC): 44%
% Fruit Set (Spain South#1) (peach trees; 300 ppm ACC): 46%
% Fruit Set (Greece #2) (peach trees; 400 ppm ACC): 28%
% Fruit Set (Spain North) (peach trees; 400 ppm ACC): 33%
% Fruit Set (Spain South#1) (peach trees; 400 ppm ACC): 39%
% Fruit Set (Greece #2) (peach trees; 500 ppm ACC): 28%
% Fruit Set (Spain North) (peach trees; 500 ppm ACC): 25%
% Fruit Set (Spain South#1) (peach trees; 500 ppm ACC): 42%
% Fruit Set (Greece #2) (peach trees; 800 ppm ACC): 23%
% Fruit Set (Spain North) (peach trees; 800 ppm ACC): 7%
% Fruit Set (Spain South#1) (peach trees; 800 ppm ACC): 31%
% Fruit Set (Greece #2) (peach trees; 1,000 ppm ACC): 21%
% Fruit Set (Spain North) (peach trees; 1,000 ppm ACC): 7%
% Fruit Set (Spain South#1) (peach trees; 1,000 ppm ACC): 32%
Foliage Rating (GlenGlo Peach trees [1]; 300 ppm ACC, After Petal Fall): 1.86
Foliage Rating (GlenGlo Peach trees [1]; 300 ppm ACC, Full Bloom): 2.10
Foliage Rating (GlenGlo Peach trees [1]; 300 ppm ACC, Pink Bud Stage): 1.52
Foliage Rating (GlenGlo Peach trees [1]; 600 ppm ACC, After Petal Fall): 1.90
Foliage Rating (GlenGlo Peach trees [1]; 600 ppm ACC, Full Bloom): 2.67
Foliage Rating (GlenGlo Peach trees [1]; 600 ppm ACC, Pink Bud Stage): 1.95
foliage quality (GlenGlo Peach trees [1]; application at the pink bud stage): did not significantly reduce foliage quality
% Fruit Set (GlenGlo Peach trees [2]; 300 ppm ACC foliar spray, After Petal Fall): 57%
% Fruit Set (GlenGlo Peach trees [2]; 300 ppm ACC foliar spray, Full Bloom): 10%
% Fruit Set (GlenGlo Peach trees [2]; 300 ppm ACC foliar spray, Pink Bud Stage): 10%
reduced fruit set over control (GlenGlo Peach trees [2]; 300 ppm): 310%
% Fruit Set (GlenGlo Peach trees [2]; 600 ppm ACC foliar spray, After Petal Fall): 45%
% Fruit Set (GlenGlo Peach trees [2]; 600 ppm ACC foliar spray, Full Bloom): 1%
% Fruit Set (GlenGlo Peach trees [2]; 600 ppm ACC foliar spray, Pink Bud Stage): 6%
reduced fruit set over control (GlenGlo Peach trees [2]; 600 ppm): 583%
thinning activity (GlenGlo Peach trees [2]; application after petal fall): did not provide effective thinning activity
% Fruit Set (Greece #1) (nectarine trees; 200 ppm ACC): 37%
% Fruit Set (Spain South #2) (nectarine trees; 200 ppm ACC): 55%
% Fruit Set (Greece #1) (nectarine trees; 300 ppm ACC): 32%
% Fruit Set (Spain South #2) (nectarine trees; 300 ppm ACC): 55%
% Fruit Set (Greece #1) (nectarine trees; 400 ppm ACC): 28%
% Fruit Set (Spain South #2) (nectarine trees; 400 ppm ACC): 48%
% Fruit Set (Greece #1) (nectarine trees; 500 ppm ACC): 25%
% Fruit Set (Spain South #2) (nectarine trees; 500 ppm ACC): 45%
% Fruit Set (Greece #1) (nectarine trees; 800 ppm ACC): 19%
% Fruit Set (Spain South #2) (nectarine trees; 800 ppm ACC): 37%
% Fruit Set (Greece #1) (nectarine trees; 1,000 ppm ACC): 16%
% Fruit Set (Spain South #2) (nectarine trees; 1,000 ppm ACC): 37%
% Fruit Set (Italy) ([3]; 200 ppm ACC): 33%
% Fruit Set (Avg) ([3]; 200 ppm ACC): 44%
reduced fruit set on average over control ([3]; 200 ppm): 18%
% Fruit Set (Italy) ([3]; 300 ppm ACC): 32%
% Fruit Set (Avg) ([3]; 300 ppm ACC): 40%
reduced fruit set on average over control ([3]; 300 ppm): 30%
% Fruit Set (Italy) ([3]; 400 ppm ACC): 34%
% Fruit Set (Avg) ([3]; 400 ppm ACC): 35%
reduced fruit set on average over control ([3]; 400 ppm): 49%
% Fruit Set (Italy) ([3]; 500 ppm ACC): 32%
% Fruit Set (Avg) ([3]; 500 ppm ACC): 33%
reduced fruit set on average over control ([3]; 500 ppm): 58%
% Fruit Set (Italy) ([3]; 800 ppm ACC): 32%
% Fruit Set (Avg) ([3]; 800 ppm ACC): 25%
reduced fruit set on average over control ([3]; 800 ppm): 108%
% Fruit Set (Italy) ([3]; 1,000 ppm ACC): 31%
% Fruit Set (Avg) ([3]; 1,000 ppm ACC): 24%
reduced fruit set on average over control ([3]; 1,000 ppm): 117%
% Fruit Set 'Black Majesty' ([4]; 300 ppm ACC, Full Bloom Stage): 9%
% Fruit set 'Candy Stripe' ([4]; 300 ppm ACC, Full Bloom Stage): 4%
% Fruit Set (Avg) ([4]; 300 ppm ACC, Full Bloom Stage): 6.5%
% Fruit Set 'Black Majesty' ([4]; 300 ppm ACC, Petal Fall Stage): 8%
% Fruit set 'Candy Stripe' ([4]; 300 ppm ACC, Petal Fall Stage): 5%
% Fruit Set (Avg) ([4]; 300 ppm ACC, Petal Fall Stage): 6.5%
% Fruit Set 'Black Majesty' ([4]; 300 ppm ACC, White Bud Stage): 4%
% Fruit set 'Candy Stripe' ([4]; 300 ppm ACC, White Bud Stage): 1%
% Fruit Set (Avg) ([4]; 300 ppm ACC, White Bud Stage): 2.5%
reduced fruit set on average over control ([4]; 300 ppm): 21.5%
% Fruit Set 'Black Majesty' ([4]; 450 ppm ACC, Full Bloom Stage): 9%
% Fruit set 'Candy Stripe' ([4]; 450 ppm ACC, Full Bloom Stage): 4%
% Fruit Set (Avg) ([4]; 450 ppm ACC, Full Bloom Stage): 6.5%
% Fruit Set 'Black Majesty' ([4]; 450 ppm ACC, Petal Fall Stage): 8%
% Fruit set 'Candy Stripe' ([4]; 450 ppm ACC, Petal Fall Stage): 3%
% Fruit Set (Avg) ([4]; 450 ppm ACC, Petal Fall Stage): 5.5%
% Fruit Set 'Black Majesty' ([4]; 450 ppm ACC, White Bud Stage): 5%
% Fruit set 'Candy Stripe' ([4]; 450 ppm ACC, White Bud Stage): 1%
% Fruit Set (Avg) ([4]; 450 ppm ACC, White Bud Stage): 3%
reduced fruit set on average over control ([4]; 450 ppm): 21%
